Values after ≈ are worked out from the molar mass of the structure shown.
How the values were obtained:
[1] = In vitro antibacterial activity against gram-negative organism Pseudomonas aeruginosa DPHD-2862; format: functional; conditions: Pseudomonas aeruginosa; read-out: MIC
[2] = molecular target: T1, DNA gyrase (Escherichia coli) (UniProt P0AES6+P0AES4); experiment: In vitro antibacterial activity against gram-positive organism Streptococcus bovis A-5169; format: functional; conditions: Streptococcus equinus
[3] = molecular target: T2, DNA gyrase (Staphylococcus aureus) (UniProt P0A0K8+P20831); experiment: In vitro antibacterial activity against gram-positive organism Staphylococcus aureus 1775; format: functional
Streptococcus pyogenes = experiment: In vitro antibacterial activity against gram-positive organism Streptococcus pyogenes EES61; format: functional; conditions: Streptococcus pyogenes; read-out: MIC
[4] = molecular target: T2, DNA gyrase (Staphylococcus aureus); experiment: In vitro antibacterial activity against gram-positive organism Staphylococcus aureus ATCC 6538p; format: functional
[5] = molecular target: T1, DNA gyrase (Escherichia coli); experiment: In vitro antibacterial activity against gram-negative organism Prov. stuartii CMX-640; format: functional; conditions: Providencia stuartii
[6] = molecular target: T1, DNA gyrase (Escherichia coli); experiment: In vitro antibacterial against gram-negative organism Escherichia coli JUHL; format: functional; conditions: Escherichia coli K-12
[7] = molecular target: T1, DNA gyrase (Escherichia coli); experiment: In vitro antibacterial activity against gram-positive organism Enterococcus faecium ATCC 8043; format: functional
[8] = molecular target: T2, DNA gyrase (Staphylococcus aureus); experiment: In vivo efficacy against Staphylococcus aureus NCTC-10649M after oral administration; format: functional, organism-based
[9] = molecular target: T1, DNA gyrase (Escherichia coli); experiment: In vitro antibacterial activity against gram-negative organism Klebsiella pneumoniae ATCC 8045; format: functional
[10] = In vitro antibacterial activity against gram-negative organism Pseudomonas aeruginosa 5007; format: functional; conditions: Pseudomonas aeruginosa; read-out: MIC
[11] = molecular target: T2, DNA gyrase (Staphylococcus aureus); experiment: In vivo efficacy against Staphylococcus aureus NCTC-10649M after subcutaneous administration; format: functional, organism-based
[12] = molecular target: T1, DNA gyrase (Escherichia coli); conditions: Escherichia coli K-12
Description: Concentration which causes 50% of the gyrase (Escherichia coli H560)-mediated maximal DNA cleavage.

[13] = molecular target: T2, DNA gyrase (Staphylococcus aureus); experiment: In vitro antibacterial activity against gram-positive organism Staphylococcus aureus NCTC-10649M; format: functional
[14] = molecular target: T1, DNA gyrase (Escherichia coli); experiment: In vitro antibacterial activity against gram-negative organism […] ATCC 13048; format: functional; conditions: Enterobacter aerogenes
[15] = molecular target: T1, DNA gyrase (Escherichia coli); experiment: In vivo efficacy against Escherichia coli JUHL by subcutaneous administration; format: functional, organism-based; conditions: Escherichia coli K-12
[16] = molecular target: T1, DNA gyrase (Escherichia coli); experiment: In vivo efficacy against Escherichia coli JUHL after oral administration; format: functional, organism-based; conditions: Escherichia coli K-12
Pseudomonas aeruginosa = experiment: In vivo efficacy against Pseudomonas aeruginosa 5007 following p.o. administration.

Row | MIC [1] [µg/mL] | MIC [2] [µg/mL] | MIC [3] [µg/mL] | MIC (Streptococcus pyogenes) [µg/mL] | MIC [4] [µg/mL] | MIC [5] [µg/mL] | MIC [6] [µg/mL] | MIC [7] [µg/mL] | ED50 [8] [mg/kg] | MIC [9] [µg/mL] | MIC [10] [µg/mL] | ED50 [11] [mg/kg] | MIC [13] [µg/mL] | MIC [14] [µg/mL] | ED50 [15] [mg/kg] | ED50 [16] [mg/kg] | ED50 (Pseudomonas aeruginosa) [mg/kg] | SMILES | CC50 [12] [µg/mL]
1 | 6.2 (≈ 17.7 µM) | 0.78 (≈ 2.23 µM) | 6.2 (≈ 17.7 µM) | 0.78 (≈ 2.23 µM) | 0.1 (≈ 0.286 µM) | 3.1 (≈ 8.87 µM) | 0.01 (≈ 0.0286 µM) | 0.78 (≈ 2.23 µM) | 14.6 | 0.01 (≈ 0.0286 µM) | 0.39 (≈ 1.12 µM) | 2.9 | 0.1 (≈ 0.286 µM) | 0.02 (≈ 0.0573 µM) | – | – | – | NC1CCN(c2c(F)cn3c(=O)c(C(=O)O)cc(C4CC4)c3c2F)C1 (stereo not drawn) | 2.2 (≈ 6.3 µM)
2 | – | 0.1 (≈ 0.269 µM) | 3.1 (≈ 8.35 µM) | – | 0.05 (≈ 0.135 µM) | 0.39 (≈ 1.05 µM) | 0.02 (≈ 0.0538 µM) | 0.1 (≈ 0.269 µM) | 5 | 0.01 (≈ 0.0269 µM) | – | 1.5 | 0.05 (≈ 0.135 µM) | 0.05 (≈ 0.135 µM) | 0.8 | > 10 | – | Cc1c(N2C[C@@H]3CCN[C@@H]3C2)c(F)cn2c(=O)c(C(=O)O)cc(C3CC3)c12 (stereo in doubt; (S,S)45o) | –
3 | – | 0.05 (≈ 0.13 µM) | 0.39 (≈ 1.01 µM) | – | 0.01 (≈ 0.0259 µM) | 0.39 (≈ 1.01 µM) | 0.005 (≈ 0.013 µM) | 0.1 (≈ 0.259 µM) | 2.5 | 0.01 (≈ 0.0259 µM) | – | 0.5 | 0.01 (≈ 0.0259 µM) | 0.02 (≈ 0.0519 µM) | – | 1 | 21.4 | Cc1c(N2C[C@@H]3CCCN[C@@H]3C2)c(F)cn2c(=O)c(C(=O)O)cc(C3CC3)c12 (stereo in doubt; (S,S)45n) | –
4 | 6.2 (≈ 15.5 µM) | 0.002 (≈ 0.00501 µM) | 0.1 (≈ 0.25 µM) | 0.005 (≈ 0.0125 µM) | 0.005 (≈ 0.0125 µM) | 0.39 (≈ 0.976 µM) | 0.01 (≈ 0.025 µM) | 0.02 (≈ 0.0501 µM) | 1.4 | 0.02 (≈ 0.0501 µM) | 0.39 (≈ 0.976 µM) | 0.3 | 0.005 (≈ 0.0125 µM) | 0.1 (≈ 0.25 µM) | – | – | – | Cc1c(N2C[C@H]3CCC[C@@H](N)[C@H]3C2)c(F)cn2c(=O)c(C(=O)O)cc(C3CC3)c12 | –
5 | 12.5 (≈ 30.7 µM) | 0.05 (≈ 0.123 µM) | 0.2 (≈ 0.491 µM) | 0.05 (≈ 0.123 µM) | 0.01 (≈ 0.0245 µM) | 1.56 (≈ 3.83 µM) | 0.05 (≈ 0.123 µM) | 0.05 (≈ 0.123 µM) | – | 0.05 (≈ 0.123 µM) | 0.78 (≈ 1.91 µM) | – | 0.02 (≈ 0.0491 µM) | 0.78 (≈ 1.91 µM) | – | – | – | Cc1c(N2CCC(c3ccccn3)C2)c(F)cn2c(=O)c(C(=O)O)cc(C3CC3)c12 (stereo not drawn) | 2.6 (≈ 6.38 µM)
6 | 25 (≈ 75.2 µM) | 3.1 (≈ 9.33 µM) | 25 (≈ 75.2 µM) | 1.56 (≈ 4.69 µM) | 0.2 (≈ 0.602 µM) | 1.56 (≈ 4.69 µM) | 0.02 (≈ 0.0602 µM) | 1.56 (≈ 4.69 µM) | > 12 | 0.02 (≈ 0.0602 µM) | 0.39 (≈ 1.17 µM) | > 8 | 0.2 (≈ 0.602 µM) | 0.02 (≈ 0.0602 µM) | 1 | 4.7 | – | NC1CCN(c2nc3c(C4CC4)cc(C(=O)O)c(=O)n3cc2F)C1 (stereo not drawn) | 0.15 (≈ 0.451 µM)
7 | – | – | – | – | – | – | – | – | 25.3 | – | – | 11.4 | – | – | 3.3 | 26.7 | – | CC(NC(=O)C(C)N[C@H]1C[C@H](C)N(c2nc3c(-c4ccc(F)cc4F)cc(C(=O)O)c(=O)n3cc2F)C1)C(=O)O (stereo partly drawn) | –
8 | 50 (≈ 120 µM) | 1.56 (≈ 3.73 µM) | 50 (≈ 120 µM) | 0.78 (≈ 1.86 µM) | 0.1 (≈ 0.239 µM) | 6.2 (≈ 14.8 µM) | 0.02 (≈ 0.0478 µM) | 0.78 (≈ 1.86 µM) | – | 0.01 (≈ 0.0239 µM) | 0.39 (≈ 0.932 µM) | – | 0.1 (≈ 0.239 µM) | 0.1 (≈ 0.239 µM) | – | – | – | C[C@H]1C[C@H](N)CN1c1nc2c(-c3ccc(F)cc3F)cc(C(=O)O)c(=O)n2cc1F | 0.5 (≈ 1.2 µM)
9 | 12.5 (≈ 31.5 µM) | 0.2 (≈ 0.503 µM) | 0.78 (≈ 1.96 µM) | 0.05 (≈ 0.126 µM) | 0.01 (≈ 0.0252 µM) | 0.39 (≈ 0.981 µM) | 0.01 (≈ 0.0252 µM) | 0.05 (≈ 0.126 µM) | – | 0.05 (≈ 0.126 µM) | 0.39 (≈ 0.981 µM) | – | 0.01 (≈ 0.0252 µM) | 0.2 (≈ 0.503 µM) | – | – | – | Cc1c(N2CCC(n3ccnn3)C2)c(F)cn2c(=O)c(C(=O)O)cc(C3CC3)c12 (stereo not drawn) | 0.07 (≈ 0.176 µM)
10 | 3.1 (≈ 8.58 µM) | 0.39 (≈ 1.08 µM) | 3.1 (≈ 8.58 µM) | 0.2 (≈ 0.553 µM) | 0.05 (≈ 0.138 µM) | 1.56 (≈ 4.32 µM) | 0.02 (≈ 0.0553 µM) | 0.2 (≈ 0.553 µM) | – | 0.01 (≈ 0.0277 µM) | 0.39 (≈ 1.08 µM) | – | 0.05 (≈ 0.138 µM) | 0.05 (≈ 0.138 µM) | – | – | – | COc1c(N2CCC(N)C2)c(F)cn2c(=O)c(C(=O)O)cc(C3CC3)c12 (stereo not drawn) | 0.3 (≈ 0.83 µM)

Reference: ChEMBL document CHEMBL1129258, “Synthesis and structure-activity relationships of 2-pyridones: a novel series of potent DNA gyrase inhibitors as antibacterial agents” (J Med Chem, 1996)
